From patent publication US20210093679A1, “[…] MICROBES AND USES THEREOF” (priority 2018, published 2021)

Tested on: female Balb/cJ mice
Experiment: Mouse model of xenobiotic metabolism (irinotecan-induced diarrhea)
Conditions: irinotecan 50 mg/kg IP once daily for 10 days
Protocol: On day one and everyday thereafter for 10 days, female Balb/cJ mice (The Jackson Laboratory, Farmington, Conn.) were administered irinotecan (50 mg/kg) (Selleckchem, Houston, Tex.) via intraperitoneal (IP) injection once daily for the length of the experiment. On day one and every day thereafter for 10 days, mice were also administered streptomycin (5 mg/ml) (Sigma-Aldrich, St. Louis, Mo.) ad libidum via their drinking water in order to kill proteobacteria in the mouse GI tract.
On day two, 0.1 ml of engineered bacteria in PBS at a concentration of 10^10 colony forming units per mL were administered to the mice once via oral gavage.
On days 3, 7, 8, 9, and 10, the presence of the bacteria in the mouse GI tract was confirmed by collecting fecal samples from the mice, and analyzing the fecal samples for the presence of engineered bacteria. The fecal samples were homogenized in PBS, and inoculated onto agar plates containing streptomycin (500 μg/ml). These agar plates inhibited the growth of other bacteria, and only allowed the engineered bacteria to grow. Colonies were quantified and tallied to determine the amount of bacteria that were alive in the mouse GI tract.
Diarrhea indicated whether the xenobiotic metabolism of the irinotecan caused GI toxicity.

CCc1c2c(nc3ccc(OC(=O)N4CCC(N5CCCCC5)CC4)cc13)-c1cc3c(c(=O)n1C2)COC(=O)[C@]3(O)CC [Irinotecan, irinotecan]
Mice with diarrhea/total mice in test group (streptomycin in drinking water, bacteria once via oral gavage on day two, observed days 6 through 10): 9/10 | GI toxicity / diarrhea from irinotecan, in words (with or without engineered bacteria): Nine of the ten mice that did not receive engineered bacteria experienced GI toxicity
